# In PMC6150205, “Semisynthesis, an Anti-Inflammatory Effect of Derivatives of 1β-Hydroxy Alantolactone from Inula britannica” (Molecules : A Journal of Synthetic Chemistry and Natural …, 2017):
# Key:
# Assay type in all cases: cell-based
# [1] = tested on: LPS-induced NO production in RAW 264.7 macrophages; assay: Inhibition of LPS-induced NO production in RAW 264.7 macrophages (Griess reagent); settings: for IC50: LPS-induced RAW 264.7 macrophages, 4 h pretreatment, then 48 h with 2 μg/mL LPS
# Procedure: (§1) Then, 100-μL aliquots of the exponentially growing RAW 264.7 cells were seeded in 96-well culture plates at 1 × 10^4 cells/well at 37 °C for overnight in DMEM medium with 0.1% FBS. The culture medium was replaced by fresh free-FBS medium and cells were pretreated with different concentrations (0, 1, 3, 10, 30, 100, 300, 1000 μM) of samples for 4 h. Thereafter, the medium with samples was removed and then incubated for 48 h with or without 2 μg/mL LPS 10% FBS DMEM. The nitrite concentration (NO production) in the culture supernatant was measured using Nitric Oxide assay kit mainly containing Griess reagent. The absorbance was measured at 540 nm using a microplate reader (M5). The amount of NO was calculated from a standard curve created using sodium nitrite with known concentrations. The cell viability was evaluated by SRB colorimetric assay.
# [2] = Cytotoxicity / cell viability by SRB colorimetric assay; settings: mouse, RAW 264.7 cells, inhibition of cell viability of samples-treated RAW264.7 cells
# Procedure: as §1
# NF-κB = NF-κB luciferase reporter assay in TNF-α-induced RAW264.7 cells; settings: 8 h treatment, TNF-α 50 ng/mL; for inhibition of the NF-κB pathway (result in words): 1-50 µM; for inhibition at 20 µM: Mus musculus, read-out: NF-κB-luciferase inhibitory percentage
# Procedure: RAW 264.7 cells (10,000 cells/well) were placed in a 96-well plate and the cells were then transfected with pNF-κB-Luc expression plasmid using a mixture of plasmid and lipofectamin 2000 PLUS in the Opti-MEM® I Reduced Serum Medium according to manufacturer’s instructions (Life Technologies, Carlsbad, CA, USA). After 12 h, the cells were co-incubated with the active samples (1, 5, 10, 20, 50 µM) and TNF-α. Parthenolide (P) was used as positive control. NF-κB was induced by adding TNF-α (50 ng/mL, delivered in PBS) to the treated wells and the induced control wells. After an additional 8 h, Bright-Glo luciferase reagent (Beyotime) was added to each well (100 μL) and the plate was allowed to stand for two minutes. Luminescence measurements with a relative light unit (RLU) were then obtained using a Fluoroskan Ascent multiple microplate reader (Molecular Device, Sunnyvale, CA, USA). Each experiment was performed in biological triplicate (at minimum) with three technical replicates per experiment.
# Figure 3 Compound 1 inhibited TNF-α-induced NF-κB activation by NF-κB-luciferase inhibition assay in RAW264.7 cells. 1 and parthenolide (P, positive control) were dosed to RAW264.7 cells containing a stably transfected NF-κB luciferase reporter and stimulated with TNF-α (50 ng/mL) for 8 h (except for a non-induced control, Non-Ind). […] Mean ± standard deviation values are shown with more than three replicates.
# [3] = tested on: NF-κB p65 and p50 subunit; assay: Western blotting of p65 and p50 phosphorylation in TNF-α-induced RAW264.7 cells; settings: 50, 10 and 1 µM, 8 h, TNF-α 50 ng/mL
# Procedure: RAW 264.7 cells were seeded in a 24-well plate at 5 × 10^4 cells/well. After cells adherence for overnight, the test compound 1 (50, 10 and 1 µM) or parthenolide (10 µM) and TNF-α (50 ng/mL) were added to the wells and incubated for 8 h. Then, cell pellets were collected and lysed with RIPA lysis buffer containing 0.5 mM phenylmethylsulfonyl fluoride (PMSF) and a protease inhibitor cocktail. The protein concentration of cell samples was analyzed by using the BCA method. Equal amount proteins of each sample were electrophoresed on 12% separating gel and 4% stacking gel and electrotransferred onto an NC membrane. After incubation with appropriate primary and secondary antibodies of p65 and p50, protein blots were detected by using ECL solution and ChemiDoc XRS+ imaging system (Bio-Rad, Hercules, CA, USA). β-actin was used as loading control.  Figure 4 Compound 1 blocks TNF-α-induced NF-κB activation through p65 and p50 phosphorylation in RAW264.7 cells. After treatment with 1 and parthenolide (P) at the indicated concentrations for 8 h, total cell lysates were tested by western blot experiments.
"IC50 ([1]; Mus musculus, RAW264.7)",SMILES,IC50 at 4 h [2],other results
46.5 ± 5.6 µM,C=C1C(=O)O[C@@H]2C[C@]3(C)C(=C[C@H]12)[C@@H](C)CC[C@H]3OC(C)=O [Compound 3],> 50 µM,–
39.6 ± 5.7 µM,C=C1C(=O)O[C@@H]2C[C@]3(C)C(=C[C@H]12)[C@@H](C)CC[C@H]3OC(=O)CCC(=O)O [Compound 4],> 50 µM,–
> 1000 µM,C[C@@H]1C(=O)O[C@@H]2C[C@]3(C)C(=C[C@H]12)[C@@H](C)CC[C@H]3O [Compound 5],–,–
> 1000 µM,Cc1ccc(C2=NO[C@]3(C2)C(=O)O[C@@H]2C[C@@]4(C)C(=O)CC[C@H](C)C4=C[C@@H]23)cc1 [Compound 6],–,–

# The next lines start with the compound.
SMILES,"IC50 ([1]; Mus musculus, RAW264.7)",IC50 at 4 h [2],other results
"N=C(N)NN [Aminoguanidine, reference compound]",–,–,IC50 [1]: 10.9 ± 1.5 µM
"C=C1C(=O)O[C@@H]2C[C@]3(C)C(=C[C@H]12)[C@@H](C)CC[C@H]3O [Compound 1, 1β-Hydroxy alantolactone]",5.61 ± 0.34 µM,> 50 µM,"inhibition of the NF-κB pathway (result in words) (NF-κB): dose-dependent inhibition; inhibition at 20 µM (NF-κB): 75%; TNF-α-induced phosphorylation of NF-κB p65 and p50 subunit (result in words) [3]: dose-dependently suppressed; potency against NO production relative to 2–4 ([1]; ratio of IC50 values, 1 versus 2–4): 6.5–8.4 fold"
C=C1C(=O)O[C@@H]2C[C@@]3(C)C(=O)CC[C@H](C)C3=C[C@H]12 [Compound 2],36.1 ± 3.8 µM,34.5 ± 5.8 µM,inhibition at 20 µM (NF-κB): 55%
"C=C1C(=O)O[C@H]2[C@H]1CC/C(C)=C/CC[C@@]1(C)O[C@@H]21 [parthenolide, Parthenolide, reference compound]",–,–,inhibition of the NF-κB pathway (result in words) (NF-κB): comparably potent
